Test system: cells
Assay: Cell adhesion on peptide-functionalized hydrogel
Type: cell-based
Settings: peptide at 1% of the total cysteine groups used for hydrogel formation
Description: The methods of macromonomer and hydrogel formation described herein provide biocompatible macromonomers and hydrogels which are easily modified with bioactive materials to improve functions of encapsulated cells such as supporting cell growth, and the development and secretion of cellular products upon biological stimulus. By “bioactive” we mean a substance that has or cause an effect on in biological samples. In this work, the macromonomers and hydrogels were further functionalized with peptides, although other bioactive materials may be used, such as proteins, growth factors, DNA, RNA. Peptides were functionalized through the Michael addition reaction between 4A-PEG-Cys and maleimide-terminated peptides prior to the cross-linking between 4A-PEG-Cys and 4A-PEG-CThE. This reaction is quantitative and fast, providing a good control over the density of peptides attached to the resulted hydrogel. Such strategy works well, when the physiological effects of peptides on cells can be achieved at low immobilization density.

GRGDSPG (maleimide-GRGDSPG-NH2; also: conjugated to 4A-PEG-Cys) [cell adhesion peptide, maleimide-terminated, attached to 4A-PEG-Cys by Michael addition]
cell adhesion: sufficient to support cell adhesion

Source: US9012594B2, “Catalyst and byproduct-free native chemical ligation using cyclic thioester precursors” (Northwestern University, priority 2010, dated 2015)
